Laboratory results reported in patent US20080261994A1, “CYCLOPROPANE COMPOUNDS AND PHARMACEUTICAL USE THEREOF” (Japan Tobacco Inc., priority 2003, published 2008).
Read-outs that look alike come from different tables or passages of the source.

Legend:
Assay type in all cases: biochemical
MMP-1 = target: T1, MMP-1 (Homo sapiens, UniProt P03956); experiment: MMP-1 inhibitory action (Type I collagen Activity Measurement kit, FITC-labeled collagen type I)
T1 sequence (P03956 100-469): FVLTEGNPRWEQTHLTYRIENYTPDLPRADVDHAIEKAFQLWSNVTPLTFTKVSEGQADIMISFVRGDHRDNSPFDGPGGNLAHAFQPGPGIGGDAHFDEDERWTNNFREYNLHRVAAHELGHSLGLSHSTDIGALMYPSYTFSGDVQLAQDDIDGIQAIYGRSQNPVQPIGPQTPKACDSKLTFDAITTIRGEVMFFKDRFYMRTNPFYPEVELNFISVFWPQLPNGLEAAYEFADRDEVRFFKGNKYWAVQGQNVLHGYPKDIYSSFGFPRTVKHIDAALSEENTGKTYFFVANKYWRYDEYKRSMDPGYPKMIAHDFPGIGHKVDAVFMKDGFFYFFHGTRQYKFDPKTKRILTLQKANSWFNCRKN

Recombinant Human MMP-13 = target: T2, Recombinant Human MMP-13 (Homo sapiens, UniProt P45452); experiment: MMP-13 inhibitory activity (MMP-13 specific fluorescent substrate with quencher)
T2 construct: purchased R&D systems 511-MM
In short: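 IC50 (μM) derived from % inhibition, normalised to wells without enzyme and without inhibitor, fluorescence read at 325/405 nm. Enzyme and compound preceded addition of the quenched 7-MCA…DPA substrate; Tris-HCl buffer, 25 °C for 1 h, acetic-acid stop.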

aggrecanase-1 = target: T3, aggrecanase-1 (Homo sapiens, UniProt O75173); experiment: Aggrecanase-1 inhibitory action (Particle Assay, GAG release from aggrecan-containing polyacrylamide particles)
T3 sequence (O75173 213-837): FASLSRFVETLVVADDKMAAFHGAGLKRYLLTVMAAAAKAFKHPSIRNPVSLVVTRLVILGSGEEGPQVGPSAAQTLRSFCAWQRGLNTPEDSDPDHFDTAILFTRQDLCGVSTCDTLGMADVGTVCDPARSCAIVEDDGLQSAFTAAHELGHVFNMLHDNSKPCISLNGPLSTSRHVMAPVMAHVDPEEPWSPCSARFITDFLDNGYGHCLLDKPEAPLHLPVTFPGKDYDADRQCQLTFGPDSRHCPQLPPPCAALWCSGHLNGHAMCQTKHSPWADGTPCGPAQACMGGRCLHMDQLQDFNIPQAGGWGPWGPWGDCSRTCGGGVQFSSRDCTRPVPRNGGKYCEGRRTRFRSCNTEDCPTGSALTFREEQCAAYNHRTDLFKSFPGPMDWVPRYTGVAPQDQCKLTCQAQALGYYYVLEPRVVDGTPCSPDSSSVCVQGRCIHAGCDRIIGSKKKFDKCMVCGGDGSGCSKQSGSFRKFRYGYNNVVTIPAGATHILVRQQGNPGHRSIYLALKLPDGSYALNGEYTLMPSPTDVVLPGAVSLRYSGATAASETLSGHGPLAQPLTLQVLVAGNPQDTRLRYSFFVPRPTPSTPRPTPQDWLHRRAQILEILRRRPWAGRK
In short: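 Readout was dimethylmethylene blue absorbance (595 nm) of glycosaminoglycan liberated into supernatant, calibrated with whale chondroitin sulfate. Substrate was aggrecan in polyacrylamide particles, digested 15 h at 37° C in Tris-HCl; TC50 (μM) derived from inhibition relative to no-enzyme and no-inhibitor controls.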

[1] = MMP-1 inhibitory action, FITC-labeled collagen type I, 37° C. for 3 hr, read-out: IC50 MMP1 (Experimental Example 2)
[2] = Recombinant Human MMP-13, fluorescent substrate, 25° C. for 1 h, read-out: IC50 MMP13 (Experimental Example 3)
[3] = aggrecanase-1 inhibitory action, read-out: IC50 AG1 (Experimental Example 1)
[4] = Experimental Example 2, read-out: IC50 MMP1
[5] = Experimental Example 3, read-out: IC50 MMP13
[6] = Experimental Example 1, read-out: IC50 AG1

SMILES | IC50 (MMP-1; [1]) [nM] | IC50 (Recombinant Human MMP-13; [2]) [nM] | IC50 (aggrecanase-1; [3]) [nM] | IC50 (MMP-1; [4]) [nM] | IC50 (Recombinant Human MMP-13; [5]) [nM] | IC50 (aggrecanase-1; [6]) [nM]
O=C(O)[C@]1(NS(=O)(=O)c2ccc(-c3cc(C(F)F)sn3)s2)C[C@@H]1c1ccccc1 [Example 2-119] | < 1000 | < 100 | < 100 |  |  | 
CCN(CC)CC1(c2ccccc2)CC1(NS(=O)(=O)c1ccc(-c2cc(C(F)(F)F)on2)s1)C(=O)O (stereo not drawn) [Example 2-343] |  |  |  | ≥ 10000 | ≥ 1000 | ≥ 1000
Cc1cnn(-c2ccc(S(=O)(=O)N[C@@]3(C(=O)O)C(C)[C@@H]3c3ccccc3)s2)c1 (stereo partly drawn) [Example 2-287] |  |  |  | < 1000 | < 100 | < 100
O=C1OCCN1CC1(c2ccccc2)CC1(NS(=O)(=O)c1ccc(-c2ccc(Cl)cc2)s1)C(=O)O (stereo not drawn) [Example 2-362] |  |  |  | ≥ 10000 | < 100 | < 1000
CC1[C@H](c2ccccc2)[C@]1(NS(=O)(=O)c1ccc(-n2cc(I)cn2)s1)C(=O)O (stereo partly drawn) [Example 2-543] |  |  |  | < 100 | < 100 | < 100
O=C(O)C1(NS(=O)(=O)c2ccc(-c3ccc(Cl)cc3)s2)CC1c1cccc(OCc2ccccc2)c1 (stereo not drawn) [Example 2-36] | ≥ 10000 | < 1000 | < 1000 |  |  | 
CC1[C@H](c2ccccc2)[C@]1(NS(=O)(=O)N1CCN(c2nc3ccccc3s2)CC1)C(=O)O (stereo partly drawn) [Example 2-463] |  |  |  | ≥ 10000 | ≥ 1000 | ≥ 1000
O=C(O)C1(NS(=O)(=O)c2cn3cc(-c4ccc(F)cc4)nc3s2)CC1c1ccccc1 (stereo not drawn) [Example 2-491] |  |  |  | ≥ 10000 | < 100 | ≥ 1000
O=C(NO)C1(NS(=O)(=O)c2ccc(-c3ccc(Cl)cc3)s2)C2CCCc3ccccc3C21 (stereo not drawn) [Example 2-391] |  |  |  | ≥ 10000 | < 1000 | ≥ 1000
O=C(OCC1(c2ccccc2)CC1(NS(=O)(=O)c1ccc(-c2cc(C(F)(F)F)on2)s1)C(=O)O)N1CCOCC1 (stereo not drawn) [Example 2-306] |  |  |  | ≥ 1000 | < 1000 | < 1000
O=C(NCCCC1(c2ccccc2)CC1(NS(=O)(=O)c1ccc(-c2ccc(Cl)cc2)s1)C(=O)O)OC1CCCC1 (stereo not drawn) [Example 2-298] |  |  |  | ≥ 1000 | < 100 | < 100
CN(C)C(=O)c1ccc(C2CC2(NS(=O)(=O)c2ccc(-c3cc(C(F)(F)F)on3)s2)C(=O)O)cc1 (stereo not drawn) [Example 2-266] | ≥ 1000 | < 1000 | < 1000 |  |  | 
CC(C)(O)COc1cccc(C2CC2(NS(=O)(=O)c2ccc(-c3ccc(Cl)cc3)s2)C(=O)O)c1 (stereo not drawn) [Example 2-42] | ≥ 10000 | < 100 | < 100 |  |  | 
O=C(NCCO)c1ccccc1C1CC1(NS(=O)(=O)c1ccc(-c2ccc(Cl)cc2)s1)C(=O)O (stereo not drawn) [Example 2-72] | ≥ 10000 | < 1000 | < 100 |  |  | 
O=C(O)C1(NS(=O)(=O)c2ccc(-c3ccc4c(c3)Cc3ccccc3-4)cc2)CC1c1ccccc1 (stereo not drawn) [Example 1-54] | ≥ 1000 | < 1000 | < 1000 |  |  | 
O=C(c1cccc(C2CC2(NS(=O)(=O)c2ccc(-c3cc(C(F)(F)F)on3)s2)C(=O)O)c1)N1CCOCC1 (stereo not drawn) [Example 2-258] | ≥ 1000 | < 1000 | < 1000 |  |  | 

SMILES | IC50 (MMP-1; [1]) [nM] | IC50 (Recombinant Human MMP-13; [2]) [nM] | IC50 (aggrecanase-1; [3]) [nM] | IC50 (MMP-1; [4]) [nM] | IC50 (Recombinant Human MMP-13; [5]) [nM] | IC50 (aggrecanase-1; [6]) [nM]
NC(=O)OCC1(c2ccccc2)CC1(NS(=O)(=O)c1ccc(-c2cc(C(F)(F)F)on2)s1)C(=O)O (stereo not drawn) [Example 2-335] |  |  |  | ≥ 1000 | < 1000 | < 1000
CNC(=O)[C@]1(NS(=O)(=O)c2ccc(-c3cc(C(F)(F)F)on3)s2)C(C)[C@@H]1c1ccccc1 (stereo partly drawn) [Example 2-297] |  |  |  | ≥ 10000 | ≥ 1000 | ≥ 1000
O=C(O)C1(NS(=O)(=O)c2ccc(-c3ccc(Cl)cc3)s2)CC1c1cccc(OCCN2CCOCC2)c1 (stereo not drawn) [Example 2-197] | ≥ 10000 | < 1000 | < 1000 |  |  | 
O=C(O)C1(NS(=O)(=O)c2ccc(-c3ccc(F)cc3)s2)CC1c1ccccc1 (stereo not drawn) [Example 2-21] | ≥ 1000 | < 1000 | < 1000 |  |  | 
O=C(Nc1cccc(C2CC2(NS(=O)(=O)c2ccc(-c3ccc(Cl)cc3)cc2)C(=O)O)c1)c1ccncc1 (stereo not drawn) [Example 1-63] | ≥ 1000 | < 100 | < 1000 |  |  | 
O=C(O)C1(NS(=O)(=O)c2cccs2)CC1c1ccccc1 (stereo not drawn) [Example 2-83] | ≥ 10000 | ≥ 10000 | ≥ 10000 |  |  | 
Cc1cc(-c2ccc(S(=O)(=O)N[C@@]3(C(=O)O)C(C)[C@@H]3c3ccccc3)s2)no1 (stereo partly drawn) [Example 2-374] |  |  |  | < 1000 | < 100 | < 100
O=C(O)[C@]1(NS(=O)(=O)c2ccc(-c3ccc(Cl)cc3)s2)C[C@@H]1c1cccc(Br)c1 [Example 2-136] | ≥ 1000 | < 100 | < 1000 |  |  | 
O=C(O)C1(NS(=O)(=O)c2ccc(-c3cc(C(F)(F)F)on3)s2)CC1c1cccc(NCc2cccnc2)c1 (stereo not drawn) [Example 2-213] | < 1000 | < 100 | < 100 |  |  | 
NC(=O)OCCc1cccc(C2CC2(NS(=O)(=O)c2ccc(-c3cc(C(F)(F)F)on3)s2)C(=O)O)c1 (stereo not drawn) [Example 2-270] |  |  |  | ≥ 1000 | < 100 | < 100
O=C(O)[C@]1(NS(=O)(=O)c2ccc(-c3cc(C(F)(F)F)on3)s2)[C@H](CO)[C@@H]1c1ccccc1 (relative stereo) [Example 2-10, (1R*,2R*,3R*)-2-hydroxymethyl-3-phenyl-1-[5-(5-trifluoromethyl-isoxazol-3-yl)-thiophene-2-sulfonylamino]-cyclopropanecarboxylic acid] | < 1000 | < 100 | < 100 |  |  | 
C[C@]1(c2ccccc2)C[C@@]1(NS(=O)(=O)c1ccc(-c2cccnc2)s1)C(=O)O [Example 2-527] |  |  |  | ≥ 1000 | ≥ 1000 | ≥ 1000
O=C(O)C1(NS(=O)(=O)c2ccc(-c3ccc(Cl)cn3)s2)CC1c1cccc(Cn2cccn2)c1 (stereo not drawn) [Example 2-56] | ≥ 10000 | < 100 | < 100 |  |  | 
CC(C)(CO)NC(=O)c1ccccc1C1CC1(NS(=O)(=O)c1ccc(-c2ccc(Cl)cc2)s1)C(=O)O (stereo not drawn) [Example 2-78] | ≥ 10000 | < 1000 | < 100 |  |  | 
CN1CCN(C(=O)OCCCc2cccc(C3CC3(NS(=O)(=O)c3ccc(-c4cc(C(F)(F)F)on4)s3)C(=O)O)c2)CC1 (stereo not drawn) [Example 2-238] | ≥ 1000 | < 100 | < 1000 |  |  | 
CC(C)CCN1CCN(S(=O)(=O)N[C@@]2(C(=O)O)C(C)[C@@H]2c2ccccc2)CC1 (stereo partly drawn) [Example 2-530] |  |  |  | ≥ 1000 | ≥ 1000 | ≥ 1000
